US9597407B2, “Targeted antimicrobial moieties” (C3 Jian, Inc., priority 2009, dated 2017)
“Also recorded” adds a separate entry of the source.

Test system: bacteria
Experiment: Binding of targeting peptides to microorganisms (Table 3)
Conditions: preferably 1x PBS
[1] = microorganism bound by the targeting peptide, binding in aqueous buffers chosen by peptide solubility
[2] = peptide binding in aqueous buffers varied by peptide solubility
[3] = microorganism the targeting peptide binds, binding in aqueous buffers that varied with peptide solubility
[4] = peptide binding in aqueous buffers that varied depending on peptide solubility

## PF-329 (IGILFDKSVRKY; Peptide with targeting and/or antimicrobial activity)
[1]
  Target(s): S. epidermidis

## PF-372 (KKQDKRIEDKYKRMKKGD; Peptide with targeting and/or antimicrobial activity)
[1]
  Target(s): C. jeikeium; also recorded: C. jejuni

## PF-326 (VIVGNLGAQKEKRNDTPISAKKDIMGDKTVRVRADLHH; Peptide with targeting and/or antimicrobial activity)
[1]
  Target(s): S. mutans; also recorded: E. coli

## PF-165 (GPVSVVASLRRGTTVQRHSQNNHNKGKP; Peptide with targeting and/or antimicrobial activity)
[1]
  Target(s): MRSA and C. jejuni

## 1T-72 (EPTDGVACKER; Peptide with targeting and/or antimicrobial activity) [Peptide 1T-72]
[2]
  Target(s) (microorganism bound by the targeting peptide): P. aeruginosa

## 1T-113 (HGAHQRTGQRLHHHRGRTVSGCRQNPVAGVDPDEHR; Peptide with targeting and/or antimicrobial activity) [Peptide 1T-113]
[2]
  Target(s) (microorganism bound by the targeting peptide): S. mitis

## 1T-242 (KQVQNTTLIICGTVLLGILFKSYLKSQKSV; Peptide with targeting and/or antimicrobial activity) [Peptide 1T-242]
[3]
  Target(s): F. nucleatum; also recorded: S. sanguinis

## 1T-195 (AASGFTYCASNGVWHPY; Peptide with targeting and/or antimicrobial activity) [Peptide 1T-195]
[3]
  Target(s): S. mutans

## AIEGVIKKGACFKLLRHEMF [PF-167]
[1]
  Target(s): S. epidermidis and E. coli and C. albicans and MRSA and C. jeikeium and C. jejuni

## PF-438 (QPYFQNQFKKITGYTPLQYRKEKR; Peptide with targeting and/or antimicrobial activity)
[4]
  Target(s) (microorganisms bound by the targeting peptide): S. epidermidis; also recorded: E. coli; also recorded: S. pneumoniae; also recorded: C. jeikeium; also recorded: C. jejuni

## PF-C273 (KNMLKRRMKQKRLFDEEDRLRVLSKYTKSYY; Peptide with targeting and/or antimicrobial activity)
[4]
  Target(s) (microorganism bound by the targeting peptide): A. naeslundii; also recorded: P. gingivalis; also recorded: S. mutans; also recorded: T. denticola

## 1T-198 (MPVSKKRYMLSSAYATALGICYGQVATDEKESEITAIPDLLDYLSVEEYLL; Peptide with targeting and/or antimicrobial activity) [Peptide 1T-198]
[3]
  Target(s): P. gingivalis; also recorded: S. epidermidis; also recorded: S. gordonii; also recorded: S. mitis; also recorded: S. mutans; also recorded: S. oralis; also recorded: S. sanguinis

## 1T-52 (DEYPAKLPLSDKGATEPRRH; Peptide with targeting and/or antimicrobial activity) [Peptide 1T-52]
[2]
  Target(s) (microorganism bound by the targeting peptide): S. aureus; also recorded: C. xerosis; also recorded: P. aeruginosa

## 1T-112 (SDNDGKLILGTSQ; Peptide with targeting and/or antimicrobial activity) [Peptide 1T-112]
[2]
  Target(s) (microorganism bound by the targeting peptide): S. gordonii

## 1T-30 (GKAKPYQVRQVLRAVDKLETRRKKGGR; Peptide with targeting and/or antimicrobial activity) [Peptide 1T-30]
[2]
  Target(s) (microorganism bound by the targeting peptide): S. aureus; also recorded: S. epidermidis; also recorded: C. xerosis; also recorded: C. striatum; also recorded: P. aeruginosa

## PF-798 (ALHSKGIKVMADWVPDQMYA; Peptide with targeting and/or antimicrobial activity)
[4]
  Target(s) (microorganism bound by the targeting peptide): S. mutans

## 1T-196 (KPEKEKLDTNTLMKVVNKALSLFDRLLIKFGA; Peptide with targeting and/or antimicrobial activity) [Peptide 1T-196]
[3]
  Target(s): F. nucleatum; also recorded: S. sanguinis

## 1T-273 (YNEPNYKWLESYKIYKQRCEDRTGMYYTEET; Peptide with targeting and/or antimicrobial activity) [Peptide 1T-273]
[3]
  Target(s): F. nucleatum; also recorded: P. gingivalis; also recorded: T. denticola; also recorded: S. mitis; also recorded: S. mutans; also recorded: S. oralis

## 1T-256 (KGKSLMPLLKQINQWGKLYL; Peptide with targeting and/or antimicrobial activity) [Peptide 1T-256]
[3]
  Target(s): S. sanguinis

## 1T-267 (RIKEERKNRSYKFFIWRLFDEKTGFI; Peptide with targeting and/or antimicrobial activity) [Peptide 1T-267]
[3]
  Target(s): A. naeslundii; also recorded: F. nucleatum; also recorded: P. gingivalis; also recorded: T. denticola; also recorded: S. mitis; also recorded: S. mutans; also recorded: S. oralis; also recorded: S. sanguinis

## 1T-47 (VIKISVPGQVQMLIP; Peptide with targeting and/or antimicrobial activity) [Peptide 1T-47]
[2]
  Target(s) (microorganism bound by the targeting peptide): S. mutans; also recorded: S. epidermidis; also recorded: P. aeruginosa

## 1T-289 (EPSADIYLSAKDTKT; Peptide with targeting and/or antimicrobial activity) [Peptide 1T-289]
[3]
  Target(s): F. nucleatum; also recorded: P. gingivalis; also recorded: S. gordonii; also recorded: S. mitis; also recorded: S. mutans; also recorded: S. oralis; also recorded: S. sanguinis

## 1T-216 (FFLNVIAIRIPHF; Peptide with targeting and/or antimicrobial activity) [Peptide 1T-216]
[3]
  Target(s): S. sanguinis

## 1T-14 (ALAGLAGLISGK; Peptide with targeting and/or antimicrobial activity) [Peptide 1T-14]
[2]
  Target(s) (microorganism bound by the targeting peptide): S. mutans; also recorded: S. aureus; also recorded: S. epidermidis; also recorded: C. xerosis

## PF-016 (RKQYDDLSFNFLY; Peptide with targeting and/or antimicrobial activity)
[3]
  Target(s): S. epidermidis; also recorded: E. faecalis; also recorded: C. jeikeium

## PF-711 (KTAGPTGTIYKTN; Peptide with targeting and/or antimicrobial activity)
[4]
  Target(s) (microorganism bound by the targeting peptide): S. mutans

## 1T-239 (ADDLLNKRLTDLIMENAETVKTIDLDNSD; Peptide with targeting and/or antimicrobial activity) [Peptide 1T-239]
[3]
  Target(s): A. naeslundii; also recorded: S. gordonii; also recorded: S. mitis; also recorded: S. mutans; also recorded: S. oralis; also recorded: S. sanguinis

## PF-777 (PGADGKLAEASAAIARLVRS; Peptide with targeting and/or antimicrobial activity)
[4]
  Target(s) (microorganism bound by the targeting peptide): Mycobacteria spp.

## PF-288 (IYQLLNIEYSEDD; Peptide with targeting and/or antimicrobial activity)
[1]
  Target(s): S. mutans; also recorded: E. coli

## 1T-36 (VYRHLRFIDGKLVEIRLERK; Peptide with targeting and/or antimicrobial activity) [Peptide 1T-36]
[2]
  Target(s) (microorganism bound by the targeting peptide): S. aureus; also recorded: S. epidermidis; also recorded: C. jeikeium; also recorded: C. xerosis; also recorded: C. striatum; also recorded: P. aeruginosa

## PF-365 (LYKQKIQLEEELEKLKDDRQ; Peptide with targeting and/or antimicrobial activity)
[1]
  Target(s): S. epidermidis; also recorded: B. subtilis; also recorded: B. fragilis; also recorded: P. aeruginosa; also recorded: C. albicans

## PF-101 (DPVPERQEQACACHRTAKPGK; Peptide with targeting and/or antimicrobial activity)
[1]
  Target(s): S. mutans
